The values below come from patent EP4548971A1, “1,4-BENZOTHIAZEPINES AND RELATED COMPOUNDS WITH CYCLOPROPANOL GROUPS AS MULTI-TARGETED DRUGS” (Georg-August-Universität Göttingen Stiftung Öffentlichen …, priority 2023, dated 2025).

For one assay, the target named is T1, SERCA2a (Mus musculus, UniProt O55143).
T1 construct: host or cells: HL-1 cardiac cells
The experiment in a line: NADH-coupled ATPase assay on microsomal membrane vesicles from mouse heart ventricles (mouse SR). It is filed as biochemical. On the set-up: key to SERCA2a mouse SR effect class: +++: a strong effect, comparable to or greater than that of a known compounds at a given concentration (25 µM in RyR2 R-CEPIA1er assay, 10 µM in caffeine assay and on microsomal membrane vesicles); ++: moderate effect; +: observable effect; -: no effect. Conditions: for SERCA2a mouse SR effect class: 10 µM on microsomal membrane vesicles. The method, then:
All animal procedures were performed in accordance with Directive 2010/63/EU of the European Parliament and the Council on the protection of animals used in research, as well as Animal Welfare Law of the Federal Republic of Germany (Tierschutzgesetz der Bundesrepublik Deutschland, TierSchG). […] All mice were housed with a 12 hours light/dark cycle with free access to food and water. Adult C57BL/6N mice of both genders were sedated with isoflurane in a sealed container and quickly euthanized by cervical dislocation. Heart ventricles were taken out instantly, washed with ice cold PBS plus complete, cut into smaller pieces and snap frozen in liquid nitrogen straight away.
Thawed on ice lysis buffer (10mM EDTA, 10mM HEPES, cOmplete, pH 7.4) was added and the ventricles were homogenized with a Qiagen cellruptor for 20 s. On ice an equal volume of restoration buffer (500 mM sucrose, 10 mM HEPES, cOmplete, pH7.2) was added and briefly mixed. The homogenate was centrifuged at 10000 × g for 20 min at 4° C. The supernatant was collected and centrifuged again for another hour (100000 × g at 4°C). Then the pellet was carefully resuspended in resuspension buffer (250 mM sucrose, 10 mM HEPES, cOmplete, pH 7.2) on ice by pipetting the solution up and down until fully dissolved. The obtained solution was diluted to a protein concentration of 5 µg/µl with the resuspension buffer and the aliquots were snap frozen in liquid nitrogen and then stored at -80 °C until usage.
(§1) To determine whether new compounds could increase the SERCA2a activity, HEK-293 microsomes (40 - 150 µg of total protein) or mouse ventricular microsomes (1 - 20 µg of total protein) were diluted in 100 µl of the assay buffer used for measurement of SERCA activity (described below) and incubated at room temperature for 5 minutes prior to the experiments. The measurements of SERCA2a activity were made at 28 °C by using a NADH -coupled ATPase assay. Briefly, the assay buffer contained 60 mM MOPS, 120 mM KCI, 6 mM MgCl2, 1 mM EGTA, 5 mM NaN3, 0.5 mM phosphoenolpyruvate and 1.5 mM CaCl2, pH 7.0. Before the reaction was started by the injection of […] ATP (resulting in 2 mM final concentration in the well), 5 units/mL of both lactate dehydrogenase and pyruvate kinase, 0.5 mM NADH, and 1 µM Ca^2+ ionophore A-23187 (Sigma, C-7522) were added to the diluted sample with or without the tested compound. The 1.5 mM Ca/EGTA buffer has a free Ca^2+ concentration of about 200 µM. The NADH fluorescence decrease was recorded each 2 s for 10 min course on a multiwell plate reader TECAN Spark 20M in 96-well glass bottom plates (MatTek Corporation; Cat. No. PBK96G-1.5-5-F). Fluorescence was evoked by 380 nm excitation wavelength and collected in a bottom-read mode at 425 nm. Exposure - 30 flashes, excitation bandwidth - 10 nm, emission bandwidth - 10 nm. ATP was injected at 30 s. […] The data were analyzed with computer software GraphPad Prism version 8.3.1 (GraphPad Software, Inc.). The difference in signal decrease with and without microsomes was taken as an indicator for the additional ATPase activity performed by SERCA2a. The obtained values for maximal SERCA2a activity were normalized for total protein concentration. Maximal SERCA2a activity values are reported as percentages of control (0.1% DMSO) values. Microsomal samples that were kept on ice until usage and set to 100%.
In an NADH assay, the change in NADH coenzyme fluorescence reflects the level of the consumption of ATP, which can be taken as an indicator of SERCA2 activity [G. B. Warren, P. A. Toon, N. J. Birdsall, A. G. Lee, J. C. Metcalfe, Reconstitution of a calcium pump using defined membrane components. Proc. Natl. Acad. Sci. U.S.A. 1974, 71, 622 - 626]. ATP hydrolysis by SERCA2 is required to pump calcium ions into the SER. A higher rate of ATP hydrolysis corresponds to enhanced SERCA2 ATPase activity that leads to a greater pumping of calcium ions into the SR. […]

For another assay, the target named is T2, SERCA2 (Homo sapiens, UniProt P16615).
T2 construct: endogenous in cells; host or cells: HEK-293T cells, microsomal membrane vesicles
T2 sequence (P16615 whole entry): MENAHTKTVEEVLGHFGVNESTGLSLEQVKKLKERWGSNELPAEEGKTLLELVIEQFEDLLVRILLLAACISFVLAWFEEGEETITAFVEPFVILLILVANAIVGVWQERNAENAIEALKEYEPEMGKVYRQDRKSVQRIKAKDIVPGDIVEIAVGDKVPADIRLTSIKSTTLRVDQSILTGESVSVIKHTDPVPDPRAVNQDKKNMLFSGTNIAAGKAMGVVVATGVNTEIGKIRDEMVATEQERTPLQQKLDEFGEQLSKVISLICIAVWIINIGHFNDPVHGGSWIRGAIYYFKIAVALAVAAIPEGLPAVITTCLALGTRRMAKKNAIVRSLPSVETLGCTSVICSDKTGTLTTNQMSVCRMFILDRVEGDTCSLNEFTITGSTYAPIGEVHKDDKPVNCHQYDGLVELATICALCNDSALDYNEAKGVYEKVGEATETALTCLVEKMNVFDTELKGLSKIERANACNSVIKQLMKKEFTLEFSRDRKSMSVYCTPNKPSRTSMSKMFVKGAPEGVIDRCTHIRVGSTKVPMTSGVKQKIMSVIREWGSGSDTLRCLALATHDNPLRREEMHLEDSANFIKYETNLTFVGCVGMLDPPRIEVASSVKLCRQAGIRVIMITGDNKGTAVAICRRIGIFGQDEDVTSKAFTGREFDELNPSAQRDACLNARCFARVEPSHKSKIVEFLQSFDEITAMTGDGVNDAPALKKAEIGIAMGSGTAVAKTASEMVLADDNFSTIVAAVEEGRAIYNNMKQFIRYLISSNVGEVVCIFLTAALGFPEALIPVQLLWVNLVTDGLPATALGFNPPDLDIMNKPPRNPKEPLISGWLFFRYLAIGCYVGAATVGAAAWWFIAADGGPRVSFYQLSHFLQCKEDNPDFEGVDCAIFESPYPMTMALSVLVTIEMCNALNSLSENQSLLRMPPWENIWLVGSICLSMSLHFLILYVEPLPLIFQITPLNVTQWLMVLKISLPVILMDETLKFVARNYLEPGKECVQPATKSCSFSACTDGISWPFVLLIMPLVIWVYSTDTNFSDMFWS
Kind of assay: NADH-coupled ATPase assay on microsomal membrane vesicles from HEK-293T cells (HEK-293 ER). It is filed as biochemical. Also on record: key to SERCA2a HEK ER effect class: +++: a strong effect, comparable to or greater than that of a known compounds at a given concentration (25 µM in RyR2 R-CEPIA1er assay, 10 µM in caffeine assay and on microsomal membrane vesicles); ++: moderate effect; +: observable effect; -: no effect. The following applies: for SERCA2a HEK ER effect class: 10 µM on microsomal membrane vesicles; for effect on SERCA2 ATPase activity, in words: microsomes from HEK-293 ER, 10 µM (1 µM for 14b), vs. 0.1 % DMSO. As to the method:
Isolation of microsomal membrane vesicles from HEK-293T cells (HEK-293 ER) was performed according to Stewart et al.^61 HEK-293T cells were harvested with Trypsin/EDTA, washed twice with ice-cold PBS containing protease inhibitor cocktail (cOmplete™, Roche, Mannheim, Germany) and centrifuged 800 × g for 5 min. The pellet was resuspended in ice-cold lysis buffer (1 mM EDTA, 10 mM HEPES, cOmplete, pH 7.4) and incubated on ice for 20 minutes. After the cells were homogenized with a tight fitting Dounce homogenizer (10-20 strokes), an equal volume of restoration buffer (500 mM sucrose, 10 mM HEPES, cOmplete, pH 7.2) was added and the cells were homogenized again (10-20 strokes). The homogenate was centrifuged at 10000 × g for 20 min at 4° C. The supernatant was collected and centrifuged again for another 2 hours (100000 × g at 4° C). Then the pellet was carefully resuspended in resuspension buffer (250 mM sucrose, 10 mM HEPES, cOmplete, pH 7.2) on ice by pipetting the solution up and down until fully dissolved. The obtained solution was diluted to a protein concentration of 15-20 µg/µl with the resuspension buffer, the aliquots were snap frozen in liquid nitrogen and stored at - 80 °C until usage.
as §1
In an NADH assay, the change in NADH coenzyme fluorescence reflects the level of the consumption of ATP, which can be taken as an indicator of SERCA2 activity [G. B. Warren, P. A. Toon, N. J. Birdsall, A. G. Lee, J. C. Metcalfe, Reconstitution of a calcium pump using defined membrane components. Proc. Natl. Acad. Sci. U.S.A. 1974, 71, 622 - 626]. ATP hydrolysis by SERCA2 is required to pump calcium ions into the SER. A higher rate of ATP hydrolysis corresponds to enhanced SERCA2 ATPase activity that leads to a greater pumping of calcium ions into the SR.
The rate of NADH oxidation, which is coupled to ATP hydrolysis, was observed by measuring changes in NADH intrinsic fluorescence over time after ATP injection into microsomal membranes enriched in SER vesicles isolated from mouse heart ventricles (mouse SER) and ER vesicles from HEK-293T cells (HEK-293 ER). […]

Broadly, the pEC50 is the negative decadic logarithm of the EC50, by convention in mol/L.

Molecules are shown by their SMILES. pEC50: −log10 of the molar value. Entries after “also recorded” stand apart in the source; their conditions may differ.

T1 sequence (O55143 1-998 isoform O55143-2): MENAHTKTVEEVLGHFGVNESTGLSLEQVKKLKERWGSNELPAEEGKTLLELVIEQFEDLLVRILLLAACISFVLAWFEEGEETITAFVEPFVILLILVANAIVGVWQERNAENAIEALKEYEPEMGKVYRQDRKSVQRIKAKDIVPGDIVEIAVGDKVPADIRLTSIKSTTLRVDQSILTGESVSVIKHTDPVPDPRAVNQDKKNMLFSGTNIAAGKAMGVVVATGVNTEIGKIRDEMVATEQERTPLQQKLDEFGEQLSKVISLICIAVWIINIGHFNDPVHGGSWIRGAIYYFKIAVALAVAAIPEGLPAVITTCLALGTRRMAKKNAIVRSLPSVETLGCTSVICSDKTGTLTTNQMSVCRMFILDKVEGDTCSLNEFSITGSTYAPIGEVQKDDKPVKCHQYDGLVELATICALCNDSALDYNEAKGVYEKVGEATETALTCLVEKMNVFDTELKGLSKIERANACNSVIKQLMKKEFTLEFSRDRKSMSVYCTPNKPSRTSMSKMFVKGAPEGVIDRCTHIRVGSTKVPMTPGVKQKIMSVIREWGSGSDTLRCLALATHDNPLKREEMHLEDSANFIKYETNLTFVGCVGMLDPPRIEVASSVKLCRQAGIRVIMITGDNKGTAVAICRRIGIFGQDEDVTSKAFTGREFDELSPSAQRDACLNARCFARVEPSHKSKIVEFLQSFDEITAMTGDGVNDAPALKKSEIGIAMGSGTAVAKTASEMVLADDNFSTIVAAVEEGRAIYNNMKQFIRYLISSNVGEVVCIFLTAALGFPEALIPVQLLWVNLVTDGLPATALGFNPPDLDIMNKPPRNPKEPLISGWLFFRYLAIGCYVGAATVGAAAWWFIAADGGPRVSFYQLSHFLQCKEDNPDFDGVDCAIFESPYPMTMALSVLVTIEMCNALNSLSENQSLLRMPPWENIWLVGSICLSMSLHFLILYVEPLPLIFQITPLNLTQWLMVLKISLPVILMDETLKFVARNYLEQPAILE

Turning to `COc1ccc2c(c1)CN(CCCCC1(O)CC1)CCS2` [Compound 13d, 1-(4-(7-methoxy-2,3-dihydrobenzo[1,4-f]thiazepin-4(5H)-yl)butyl)cyclopropan-1-ol], at SERCA2a, the “SERCA2a mouse SR effect class” value is “++”. Further, the “effect on ATPase activity, in words” value on SERCA2a (cardiac SER vesicles from mouse heart, 10 µM (3 µM for 14b), vs. 0.1 v/v% DMSO) is “moderate”. In addition, on SERCA2, the “SERCA2a HEK ER effect class” value was “+” and the “effect on SERCA2 ATPase activity, in words” value is listed as “significant activation of SERCA2 ATPase; also recorded: slight”.

As for `COc1ccc(OCCCNCCCCC2(O)CC2)cc1` [Compound 13b, 1-(4-((3-(4-methoxyphenoxy)propyl)amino)butyl)cyclopropan-1-ol], the “SERCA2a mouse SR effect class” value at SERCA2a is recorded as “+”. Further, the “SERCA2a HEK ER effect class” value on SERCA2 is “-”.

In the case of `COc1ccc2c(c1)CN(CCCCN(CCCCC1(O)CC1)CCCCC1(O)CC1)CCS2` [Compound 14a, 1,1'-(((4-(7-Methoxy-2,3-dihydrobenzo[1,4-f]thiazepin-4(5H)-yl)butyl)azanediyl)bis(butane-4,1-diyl))bis(cyclopropan-1-ol)], the “SERCA2a mouse SR effect class” value on SERCA2a is on record as “+++”. The pEC50 was 6.42 on SERCA2a (ATPase activity, range after the semicolon is not explained) and 7.80 on SERCA2 (ATPase activity, range after the semicolon is not explained, read-out: SERCA2a HEK ER (EC50)). The “SERCA2a HEK ER effect class” value at SERCA2 was “++”.

For `COc1ccc2c(c1)CN(Cc1ccc(C(=O)O)cc1)CCS2` [ARM210, reference compound], the “SERCA2a mouse SR effect class” value at SERCA2a was “++”. Also, on SERCA2, the “SERCA2a HEK ER effect class” value is given as “+” and the “effect on SERCA2 ATPase activity, in words” value is “significant activation of SERCA2 ATPase”.

For the compound `COc1ccc(SCCCNCCCCC2(O)CC2)cc1` [Compound 13c, 1-(4-((3-((4-Methoxyphenyl)thio)propyl)amino)butyl)cyclopropan-1-ol], the “SERCA2a mouse SR effect class” value at SERCA2a was “+++”. At SERCA2, the “SERCA2a HEK ER effect class” value is “+” and the “effect on SERCA2 ATPase activity, in words” value is listed as “significant activation of SERCA2 ATPase”.

Regarding `COc1ccc(SCCCN(CCCCC2(O)CC2)CCCCC2(O)CC2)cc1` [Compound 14c, 1,1'-(((3-((4-Methoxyphenyl)thio)propyl)azanediyl)bis(butane-4,1-diyl))bis(cyclopropan-1-ol)], at SERCA2a, the “SERCA2a mouse SR effect class” value was “+”. The “SERCA2a HEK ER effect class” value at SERCA2 was “+”.

Regarding `COc1ccc2c(c1)CN(CCCCNCCCCC1(O)CC1)CCS2` [Compound 13a, 1-(4-((4-(7-Methoxy-2,3-dihydrobenzo[1,4-f]-thiazepin-4(5H)-yl)butyl)amino)butyl)cyclopropan-1-ol], the “SERCA2a mouse SR effect class” value at SERCA2a is recorded as “+”. Moreover, on SERCA2, the “SERCA2a HEK ER effect class” value is recorded as “-” and the “effect on SERCA2 ATPase activity, in words” value was “did not evoke significant increase in ATPase activity; also recorded: could not detect SERCA2 activation”.
